Data: PubChem BioAssay (NCI)
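Assay format: 96-well plates, 48-hour exposure. Here, GI50 denotes the concentration required for 50% inhibition of growth. Definition used: TGI = concentration required for complete inhibition of growth.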

How the values were obtained:
Assay in all cases: growth of human tumour cells (NCI), 48 h
[1] = tested on: MOLT-4 leukemia
[2] = tested on: HS 578T breast
[3] = tested on: SF-268 CNS
[4] = tested on: COLO 205 colon
[5] = tested on: A549 NSCLC
[6] = tested on: SF-295 CNS
[7] = tested on: MDA-MB-435
[8] = tested on: K-562 leukemia
[9] = tested on: CCRF-CEM leukemia
[10] = tested on: RXF 393 renal
[11] = tested on: CAKI-1 renal
[12] = tested on: OVCAR-4 ovarian
[13] = tested on: NCI-H522 lung
[14] = tested on: OVCAR-3 ovarian
[15] = tested on: SK-MEL-2 melanoma
[16] = tested on: SK-OV-3 ovarian
[17] = tested on: DU-145 prostate
[18] = tested on: UACC-257 melanoma
[19] = tested on: ACHN renal
[20] = tested on: HOP-92 NSCLC
[21] = tested on: A498 renal
[22] = tested on: OVCAR-8 ovarian
[23] = tested on: SK-MEL-28 melanoma
[24] = tested on: SNB-75 CNS
[25] = tested on: SR leukemia
[26] = tested on: HL-60(TB) leukemia
[27] = tested on: TK-10 renal
[28] = tested on: OVCAR-5 ovarian
[29] = tested on: PC-3 prostate
[30] = tested on: UO-31 renal
[31] = tested on: BT-549 breast
[32] = tested on: UACC-62 melanoma

CC(C)=CCC[C@](C)(O)[C@H]1CC[C@]2(C)[C@@H]1CC[C@@H]1[C@@]3(C)CC[C@H](N)C(C)(C)[C@@H]3CC[C@]12C
GI50 [1]: 2.1 µM
TGI [1]: 4.98 µM
GI50 [2]: 2.21 µM
TGI [2]: 5.01 µM
GI50 [3]: 4.19 µM
TGI [3]: 21.8 µM
GI50 [4]: 1.9 µM
TGI [4]: 3.68 µM
GI50 [5]: 1.87 µM
TGI [5]: 3.77 µM
GI50 [6]: 1.81 µM
TGI [6]: 3.39 µM
GI50 [7]: 1.87 µM
TGI [7]: 3.52 µM
GI50 [8]: 1.97 µM
TGI [8]: 5.71 µM
GI50 [9]: 3.02 µM
TGI [9]: > 100 µM
GI50 [10]: 1.49 µM
TGI [10]: 2.85 µM
GI50 [11]: 1.85 µM
TGI [11]: 3.38 µM
GI50 [12]: 2.19 µM
TGI [12]: 5.74 µM
GI50 [13]: 1.97 µM
TGI [13]: 4.28 µM
GI50 [14]: 1.77 µM
TGI [14]: 3.27 µM
GI50 [15]: 2.02 µM
TGI [15]: 4.05 µM
GI50 [16]: 3.23 µM
TGI [16]: 10.9 µM
GI50 [17]: 1.92 µM
TGI [17]: 3.63 µM
GI50 [18]: 2.06 µM
TGI [18]: 4.47 µM
GI50 [19]: 1.78 µM
TGI [19]: 3.16 µM
GI50 [20]: 1.76 µM
TGI [20]: 5.46 µM
GI50 [21]: 1.88 µM
TGI [21]: 3.55 µM
GI50 [22]: 2.18 µM
TGI [22]: 4.96 µM
GI50 [23]: 1.8 µM
TGI [23]: 3.35 µM
GI50 [24]: 10.5 µM
TGI [24]: 26.4 µM
GI50 [25]: 1.17 µM
TGI [25]: 3.58 µM
GI50 [26]: 1.87 µM
TGI [26]: 3.9 µM
GI50 [27]: 6.01 µM
TGI [27]: 21.1 µM
GI50 [28]: 1.64 µM
TGI [28]: 3.09 µM
GI50 [29]: 1.98 µM
TGI [29]: 4.23 µM
GI50 [30]: 1.54 µM
TGI [30]: 2.9 µM
GI50 [31]: 14.3 µM
TGI [31]: 55.8 µM
GI50 [32]: 1.66 µM
TGI [32]: 3.21 µM
